Results: patent EP4768484A1, “HETEROCYCLIC FUSED RING COMPOUND, AND COMPOSITION AND USE THEREOF” (Shenzhen TargetRx, Inc., priority 2023, dated 2025)

What was measured:
Format in all cases: cell-based
K562 cells = assay: Cell growth inhibitory activity assay (CellTiter-Glo), K562 cells; settings: Homo sapiens, 72 h, CTG cell viability
Method: (§1) In this assay, the Celltiter-Glo (CTG) kit provided by Promega was used, and it is a homogeneous cell viability assay method. The cell viability of cultured cells was measured by quantifying ATP. K562 cells were purchased from Nanjing Kebai, product number CBP60529; Ba/F3 parental cells were purchased from RIKEN BRC, product number RCB0805; other cells containing BCR-ABL1 WT, BCR-ABL1 T315I, BCR-ABL1 T315M, BCR-ABL1 Y253H/E255K, BCR-ABL1 E255V/T3151, BCR-ABL1 A424T, BCR-ABL1 A337V, BCR-ABL1 P465S, BCR-ABL1 V468F, and BCR-ABL1 I502L were all monoclonal engineered cell lines obtained by transducting Ba/F3 parental cells with the lentivirus plasmids containing WT or corresponding mutated BCR-ABL1.
(§2) The steps of cell viability assay are as follows: • a) Cells in logarithmic growth phase were collected. Cell suspension was prepared and the cells were counted. Concentration of the cells was calculated. • b) The cell suspension was diluted to the required concentration and then added to the middle wells of a 96-well plate, and PBS was added to the edge wells. The wells with no cells and only culture medium were used as blank controls. • c) In addition to the cell plate used for compound analysis, another 96-well plate was prepared as a T0 plate, and 3-6 blank wells and 3-6 cell wells were added. The next day, CTG was used to test the cell viability as the T0 viability value of the cells. • d) The cell plate was incubated at 37 °C in a 5% CO2 incubator overnight. • e) The next day, each concentration of a compound subjected to a gradient dilution was added, and the cell plate was incubated at 37 °C in a 5% CO2 incubator for 72 h. The wells with no compound and only 0.5% DMSO were used as positive controls for cell growth. • f) CTG reagent (CellTiter-Glo kit) was added according to the manufacturer's instructions to test the cell viability value. • g) The plate was read using Biotek cytation3.0 microplate reader and the data were exported. • h) IC50 was calculated using GraphPad Prism 7.0 software.
(§3) The IC50 (half-maximal inhibitory concentration) of the compound was obtained using the following nonlinear fitting formula: Y = Bottom + (Top−Bottom)/(1+10^(∧)((LogIC50−X)*HillSlope)) [formula] • X: Log value of the compound concentration • Y: Inhibition rate (% inhibition) • Top: Maximum response • Bottom: Baseline response • HillSlope: Slope of the curve
(§4) The formula for calculating cell inhibition rate (inhibition rate %) was: [formula]

Ba/F3 BCR-ABL1 WT = molecular target: T1, Ba/F3 BCR-ABL1 WT (Homo sapiens, UniProt P00519+P11274); assay: Cell growth inhibitory activity assay (CellTiter-Glo), Ba/F3 BCR-ABL1 WT cells; settings: 72 h, CTG cell viability
T1 construct: BCR (N-terminal fusion partner of the oncoprotein); expressed in transfected cells; host or cells: Ba/F3 (lentiviral transduction, monoclonal line)
Method: as §1, §2, §3, §4

Ba/F3 parental cells = assay: Cell growth inhibitory activity assay (CellTiter-Glo), Ba/F3 parental cells; settings: Mus musculus, BaF3, 72 h, CTG cell viability, read-out: IC50 Ba/F3 BCR-ABL1 Parental
Method: as §1, §2, §3, §4

Ba/F3 BCR-ABL1 T315I = molecular target: T2, Ba/F3 BCR-ABL1 T315I (Homo sapiens, UniProt P00519+P11274, T315I); assay: Cell growth inhibitory activity assay (CellTiter-Glo), Ba/F3 BCR-ABL1 T315I cells; settings: 72 h, CTG cell viability
T2 construct: BCR (N-terminal fusion partner of the oncoprotein); expressed in transfected cells; host or cells: Ba/F3 (lentiviral transduction, monoclonal line)
Method: as §1, §2, §3, §4

Row | IC50 (K562 cells) | Compound | IC50 (Ba/F3 BCR-ABL1 WT) | IC50 (Ba/F3 parental cells) | IC50 (Ba/F3 BCR-ABL1 T315I)
1 | ≤ 5 nM | C[C@@H]1CCSc2nc3cc(C(=O)Nc4ccc(OC(F)(F)Cl)cc4)cc(-c4cnccn4)c3n21 [T-116, (R)-N-(4-(chlorodifluoromethoxy)phenyl)-4-methyl-6-(pyrazin-2-yl)-3,4-dihydro-2H-benzo[4,5]imidazo[2,1-c][1,3]thiazine-8-carboxamide] | ≤ 5 nM | > 1000 nM | 5 to 50 nM
2 | ≤ 5 nM | C[C@@H]1COCc2nc3cc(C(=O)Nc4ccc(OC(F)(F)Cl)cc4)cc(-c4cnc5c(c4)-c4nn(-c6nccc(-c7cccnc7F)n6)cc4C5)c3n21 [T-95, (R)-N-(4-(chlorodifluoromethoxy)phenyl)-6-(2-(4-(2-fluoropyridin-3-yl)pyrimidin-2-yl)-2,4-dihydropyrazolo[3',4':3,4]cyclopenta[1,2-b]pyridin-7-yl)-4-methyl-3,4-dihydro-1H-benzo[4,5]imidazo[2,1-c][1,4]oxazine-8-carboxamide] | ≤ 5 nM | > 1000 nM | ≤ 5 nM
3 | ≤ 5 nM | N#Cc1ccc(-c2ccnc(-n3cc4c(n3)-c3cc(-c5cc(C(=O)Nc6ccc(OC(F)(F)Cl)cc6)cnc5N5CC[C@@H](F)C5)cnc3C4)n2)cn1 [T-19, (R)-N-(4-(chlorodifluoromethoxy)phenyl)-5-(2-(4-(6-cyanopyridin-3-yl)pyrimidin-2-yl)-2,4-dihydropyrazolo[3',4':3,4]cyclopenta[1,2-b]pyridin-7-yl)-6-(3-fluoropyrrolidin-1-yl)nicotinamide] | ≤ 5 nM | > 1000 nM | ≤ 5 nM
4 | ≤ 5 nM | C[C@@H]1CN(C)Cc2nc3cc(C(=O)Nc4ccc(OC(F)(F)Cl)cc4)cc(-c4cnc5c(c4)-c4n[nH]cc4C5)c3n21 [T-40, (R)-N-(4-(chlorodifluoromethoxy)phenyl)-6-(2,4-dihydropyrazolo[3',4':3,4]cyclopenta[1,2-b]pyridin-7-yl)-2,4-dimethyl-1,2,3,4-tetrahydrobenzo[4,5]imidazo[1,2-a]pyrazine-8-carboxamide] | ≤ 5 nM | > 1000 nM | > 1000 nM
5 | 5 to 50 nM | O=C(Nc1ccc(OC(F)(F)Cl)cc1)c1cnc(N2CC[C@@H](F)C2)c(-c2cnc3c(c2)-c2c(cnn2-c2ncc(F)cn2)C3F)c1 (stereo partly drawn) [T-131, N-(4-(chlorodifluoromethoxy)phenyl)-5-(4-fluoro-1-(5-fluoropyrimidin-2-yl)-1,4-dihydrepyrazolo[3',4':3,4]cyclopenta[1,2-b]pyridin-7-yl)-6-((R)-3-fluoropyrrolidin-1-yl)nicotinamide] | 50 to 1000 nM | > 1000 nM | 50 to 1000 nM
6 | ≤ 5 nM | O=C(Nc1ccc(OC(F)(F)Cl)cc1)c1cnc(N2CC[C@@H](F)C2)c(-c2cnc3c(c2)-c2nn(-c4nccc(-c5cncc(F)c5)n4)cc2C3)c1 [T-142, (R)-N-(4-(chlorodifluoromethoxy)phenyl)-5-(2-(4-(5-fluoropyridin-3-yl)pyrimidin-2-yl)-2,4-dihydropyrazolo[3',4':3,4]cyclopenta[1,2-b]pyridin-7-yl)-6-(3-fluoropyrrolidin-1-yl)nicotinamide] | ≤ 5 nM |  | ≤ 5 nM
7 | ≤ 5 nM | O=C(Nc1ccc(OC(F)(F)Cl)cc1)c1cc2c(c(-c3cnc4c(c3)-c3nn(-c5nccc(-c6cncc(F)c6)n5)cc3C4)c1)C1(CCCCC1)C(=O)N2 [T-140, N-(4-(chlorodifluoromethoxy)phenyl)-4'-(2-(4-(5-fluoropyridin-3-yl)pyrimidin-2-yl)-2,4-dihydropyrazolo[3',4':3,4]cyclopenta[1,2-b]pyridin-7-yl)-2'-oxospiro[cyclohexane-1,3'-indoline]-6'-carboxamide] | ≤ 5 nM |  | ≤ 5 nM
8 | ≤ 5 nM | C[C@@H]1COCc2nc3cc(C(=O)Nc4ccc(OC(F)(F)Cl)cc4)cc(-c4cnc5c(c4)-c4nn(-c6ncccn6)cc4C5O)c3n21 (stereo partly drawn) [T-106, (4R)-N-(4-(chlorodifluoromethoxy)phenyl)-6-(4-hydroxy-2-(pyrimidin-2-yl)-2,4-dihydropyrazolo[3',4':3,4]cyclopenta[1,2-b]pyridin-7-yl)-4-methyl-3,4-dihydro-1H-benzo[4,5]imidazo[2,1-c][1,4]oxazine-8-carboxamide] | ≤ 5 nM |  | ≤ 5 nM
9 | ≤ 5 nM | C[C@@H]1COCc2nc3cc(C(=O)Nc4ccc(OC(F)(F)Cl)cc4)cc(-c4cnc5c(c4)-c4nn(C(F)F)cc4C5)c3n21 [T-51, (R)-N-(4-(chlorodifluoromethoxy)phenyl)-6-(2-(difluoromethyl)-2,4-dihydropyrazolo[3',4':3,4]cyclopenta[1,2-b]pyridin-7-yl)-4-methyl-3,4-dihydro-1H-benzo[4,5]imidazo[2,1-c][1,4]oxazine-8-carboxamide] | 5 to 50 nM | > 1000 nM | 
10 | ≤ 5 nM | C[C@@H]1COCc2nc3cc(C(=O)Nc4ccc(OC(F)(F)Cl)cc4)cc(-c4cnc5c(c4)-c4nn(-c6ncccn6)cc4C5F)c3n21 (stereo partly drawn) [T-107, (4R)-N-(4-(chlorodifluoromethoxy)phenyl)-6-(4-fluoro-2-(pyrimidin-2-yl)-2,4-dihydropyrazolo[3',4':3,4]cyclopenta[1,2-b]pyridin-7-yl)-4-methyl-3,4-dihydro-1H-benzo[4,5]imidazo[2,1-c][1,4]oxazine-8-carboxamide] | ≤ 5 nM |  | ≤ 5 nM
11 | ≤ 5 nM | O=C(Nc1ccc(OC(F)(F)Cl)cc1)c1cnc(N2CC[C@@H](F)C2)c(-c2cnc3c(c2)-c2nn(-c4nccc(-c5ccc(F)nc5)n4)cc2C3)c1 [T-141, (R)-N-(4-(chlorodifluoromethoxy)phenyl)-5-(2-(4-(6-fluoropyridin-3-yl)pyrimidin-2-yl)-2,4-dihydropyrazolo[3',4':3,4]cyclopenta[1,2-b]pyridin-7-yl)-6-(3--fluoropyrrolidin-1-yl)nicotinamide] | ≤ 5 nM |  | ≤ 5 nM
12 | ≤ 5 nM | [2H]C1([2H])c2cn(-c3ncccn3)nc2-c2cc(-c3cc(C(=O)Nc4ccc(OC(F)(F)Cl)cc4)cc4nc5n(c34)[C@H](C)COC5)cnc21 [T-105, (R)-N-(4-(chlorodifluoromethoxy)phenyl)-4-methyl-6-(2-(pyrimidin-2-yl)-2,4-dihydropyrazolo[3',4':3,4]cyclopenta[1,2-b]pyridin-7-yl-4,4-d2)-3,4-dihydro-1H-benzo[4,5]imidazo[2,1-c][1,4]oxazine-8-carboxamide] | ≤ 5 nM |  | ≤ 5 nM
13 | ≤ 5 nM | O=C(Nc1ccc(OC(F)(F)Cl)cc1)c1cc2c(c(-c3cnc4c(c3)-c3nn(-c5nccc(-c6ccc(F)nc6)n5)cc3C4)c1)C1(CCCCC1)C(=O)N2 [T-139, N-(4-(chlorodifluoromethoxy)phenyl)-4'-(2-(4-(6-fluoropyridin-3-yl)pyrimidin-2-yl)-2,4-dihydropyrazolo[3',4':3,4]cyclopenta[1,2-b]pyridin-7-yl)-2'-oxospiro[cyclohexane-1,3'-indoline]-6'-carboxamide] | ≤ 5 nM |  | ≤ 5 nM
14 | ≤ 5 nM | Cn1ccc(-c2ccnc(-n3cc4c(n3)-c3cc(-c5cc(C(=O)Nc6ccc(OC(F)(F)Cl)cc6)cc6c5C5(CCCCC5)C(=O)N6)cnc3C4)n2)n1 [T-138, N-(4-(chlorodifluoromethoxy)phenyl)-4'-(2-(4-(1-methyl-1H-pyrazol-3-yl)pyrimidin-2-yl)-2,4-dihydropyrazolo[3',4':3,4]cyclopenta[1,2-b]pyridin-7-yl)-2'-oxospiro[cyclohexane-1,3'-indoline]-6'-carboxamide] | ≤ 5 nM |  | ≤ 5 nM

Row | Compound | IC50 (K562 cells) | IC50 (Ba/F3 BCR-ABL1 WT) | IC50 (Ba/F3 parental cells) | IC50 (Ba/F3 BCR-ABL1 T315I)
15 | C[C@@H]1COCc2nc3cc(C(=O)Nc4ccc(OC(F)(F)Cl)cc4)cc(-c4cnc5c(c4)-c4nn(CCOC(C)(C)C)cc4C5)c3n21 [T-56-A, (R)-6-(2-(2-(tert-butoxy)ethyl)-2,4-dihydropyrazolo[3',4':3,4]cyclopenta[1,2-b]pyridin-7-yl)-N-(4-(chlorodifluoromethoxy)phenyl)-4-methyl-3,4-dihydro-1H-benzo[4,5]imidazo[2,1-c][1,4]oxazine-8-carboxamide] | 5 to 50 nM | 50 to 1000 nM | > 1000 nM | > 1000 nM
